Test results reported in patent US10703745B2, “Acyl phosphonamidates and acyl benzylamines that are Bcl family antagonists for use in clinical management of conditions caused or mediated by senescent cells and for treating cancer” (Unity Biotechnology, Inc., priority 2018, dated 2020).

Key:
[1] = test system: 3MR or INK-ATTAC mice exposed to cigarette smoke; experiment: Cigarette smoke COPD model, oxygen saturation by pulse oximeter; type: in vivo, mouse; settings: after two months of cigarette smoke exposure, compared with untreated controls
Source text: The mice used in this study include the 3MR strain, described in US 2017/0027139 A1 and in Demaria et al., Dev Cell. 2014 Dec. 22; 31(6): 722-733. The 3MR mouse has a transgene encoding thymidine kinase that converts the prodrug ganciclovir (GCV) to a compound that is lethal to cells. The enzyme in the transgene is placed under control of the p16 promoter, which causes it to be specifically expressed in senescent cells. Treatment of the mice with GCV eliminates senescent cells.
Other mice used in this study include the INK-ATTAC strain, described in US 2015/0296755 A1 and in Baker et al., Nature 2011 Nov. 2; 479(7372):232-236. The INK-ATTAC mouse has a transgene encoding switchable caspase 8 under control of the p16 promoter. The caspase 8 can be activated by treating the mice with the switch compound AP20187, whereupon the caspase 8 directly induces apoptosis in senescent cells, eliminating them from the mouse.
To conduct the experiment, six-week-old 3MR (n=35) or INK-ATTAC (n=35) mice were chronically exposed to cigarette smoke generated from a Teague TE-10 system, an automatically-controlled cigarette smoking machine that produces a combination of side-stream and mainstream cigarette smoke in a chamber, which is transported to a collecting and mixing chamber where varying amounts of air is mixed with the smoke mixture. The COPD protocol was adapted from the COPD core facility at Johns Hopkins University (Rangasamy et al., 2004, J. Clin. Invest. 114:1248-1259; Yao et al., 2012, J. Clin. Invest. 122:2032-2045).
Mice received a total of 6 hours of cigarette smoke exposure per day, 5 days a week for 6 months. Each lighted cigarette (3R4F research cigarettes containing 10.9 mg of total particulate matter (TPM), 9.4 mg of tar, and 0.726 mg of nicotine, and 11.9 mg carbon monoxide per cigarette [University of Kentucky, Lexington, Ky.]) was puffed for 2 seconds and once every minute for a total of 8 puffs, with the flow rate of 1.05 L/min, to provide a standard puff of 35 cm3. The smoke machine was adjusted to produce a mixture of side stream smoke (89%) and mainstream smoke (11%) by smoldering 2 cigarettes at one time. The smoke chamber atmosphere was monitored for total suspended particulates (80-120 mg/m3) and carbon monoxide (350 ppm). […]
After two months of cigarette smoke (CS) exposure, lung function was assessed by monitoring oxygen saturation using the MouseSTAT PhysioSuite™ pulse oximeter (Kent Scientific). […] Mice were monitored for 30 seconds and the average peripheral capillary oxygen saturation (SpO2) measurement over this duration was calculated.

[2] = test system: primary cells from patients with B-cell malignancies; settings: in vitro; cited from earlier work
cancer cells = settings: cited from earlier work
[3] = test system: LDLR-/- mice fed a high fat diet; experiment: Atherosclerosis model: body composition by MRI and circulating blood cell counts; type: in vivo, mouse; settings: timepoint 3
Description: (§1) Two groups of LDLR−/− mice (10 weeks) are fed a high fat diet (HFD) (Harlan Teklad TD.88137) having 42% calories from fat, beginning at Week 0 and throughout the study. Two groups of LDLR−/− mice (10 weeks) are fed normal chow (−HFD). From weeks 0-2, one group of HFD mice and −HFD mice are treated with Nutlin-3A (25 mg/kg, intraperitoneally). One treatment cycle is 14 days treatment, 14 days off. Vehicle is administered to one group of HFD mice and one group of −HFD mice. At week 4 (timepoint 1), one group of mice are sacrificed and to assess presence of senescent cells in the plaques. For the some of the remaining mice, Nutlin-3A and vehicle administration is repeated from weeks 4-6. At week 8 (timepoint 2), the mice are sacrificed and to assess presence of senescent cells in the plaques. The remaining mice are treated with Nutlin-3A or vehicle from weeks 8-10. At week 12 (timepoint 3), the mice are sacrificed and to assess the level of plaque and the number of senescent cells in the plaques.
(§2) At the end of timepoint 3, LDLR−/− mice fed a HFD and treated with Nutlin-3A or vehicle (n=3 for all groups) were sacrificed, and aortas were dissected and stained with Sudan IV to detect the presence of lipid. Body composition of the mice was analyzed by MRI, and circulating blood cells were counted by Hemavet™.

[4] = test system: LDLR-/- mice fed a high fat diet; experiment: Atherosclerosis model: RT-PCR of SASP factors and senescent cell markers in aortic arch; type: in vivo, mouse; settings: 25 mg/kg intraperitoneally, HFD
Description: as §1, with “At week 8 (timepoint 2), the mice are sacrificed and to assess presence of senescent cells in the plaques. The remaining mice are treated with Nutlin-3A or vehicle from weeks 8-10. At week 12 (timepoint 3), the mice are sacrificed and to assess the level of plaque and the number of senescent cells in the plaques.” left out
At the end of timepoint 1, LDLR−/− mice fed a HFD and treated with Nutlin-3A or vehicle were sacrificed (n=3, all groups), and the aortic arches were dissected for RT-PCR analysis of SASP factors and senescent cell markers. Values were normalized to GAPDH and expressed as fold-change versus age-matched, vehicle-treated LDLR−/− mice on a normal diet.
At the end of timepoint 2, LDLR−/− mice fed a HFD and treated with Nutlin-3A or vehicle (n=3 for all groups) were sacrificed, and aortic arches were dissected for RT-PCR analysis of SASP factors and senescent cell markers. Values were normalized to GAPDH and expressed as fold-change versus age-matched, vehicle-treated LDLR−/− mice on a normal diet.

[5] = test system: C57BL/6J mice with surgery-induced osteoarthritis; experiment: Osteoarthritis model: weight bearing test of hind limbs; type: in vivo, mouse; settings: 4 weeks post-surgery
Description: (§3) The model was implemented as follows. C57BL/6J mice underwent surgery to cut the anterior cruciate ligament of one rear limb to induce osteoarthritis in the joint of that limb. During week 3 and week 4 post-surgery, the mice were treated with 5.8 μg of Nutlin-3A (n=7) per operated knee by intra-articular injection, q.o.d. for 2 weeks. At the end of 4 weeks post-surgery, joints of the mice were monitored for presence of senescent cells, assessed for function, monitored for markers of inflammation, and underwent histological assessment.
Function of the limbs was assessed 4 weeks post-surgery by a weight bearing test to determine which leg the mice favored. The mice were allowed to acclimate to the chamber on at least three occasions prior to taking measurements. Mice were maneuvered inside the chamber to stand with one hind paw on each scale. The weight that was placed on each hind limb was measured over a three second period. At least three separate measurements were made for each animal at each time point. The results were expressed as the percentage of the weight placed on the operated limb versus the contralateral unoperated limb.

[6] = test system: LDLR-/- mice fed a high fat diet; experiment: Atherosclerosis model: Sudan IV staining of aortic plaques; type: in vivo, mouse; settings: timepoint 3 (week 12), 25 mg/kg intraperitoneally, HFD
Description: as §1, §2

[7] = test system: C57BL/6J mice with surgery-induced osteoarthritis; experiment: Osteoarthritis model: histopathology of joint tissue; type: in vivo, mouse; settings: ACL surgery, 4 weeks post-surgery
Description: as §3

[8] = test system: C57BL/6J mice with surgery-induced osteoarthritis; experiment: Osteoarthritis model (ACL surgery): qRT-PCR of senescence markers and SASP factors in operated joints; type: in vivo, mouse; settings: 5.8 μg per operated knee intra-articular, 4 weeks post-surgery
Description: as §3
Two control groups of mice were included in the studies performed: one group comprising C57BL/6J or 3MR mice that had undergone a sham surgery (n=3) (i.e., surgical procedures followed except for cutting the ACL) and intra-articular injections of vehicle parallel to the GCV (ganciclovir) treated group; and one group comprising C57BL/6J or 3MR mice that had undergone an ACL surgery and received intra-articular injections of vehicle (n=5) parallel to the GCV-treated group. RNA from the operated joints of mice from the Nutlin-3A treated mice was analyzed for expression of SASP factors (mmp3, IL-6) and senescence markers (p16). qRT-PCR was performed to detect mRNA levels.

In the case of `CC1(C)CCC(c2ccc(Cl)cc2)=C(CN2CCN(c3ccc(C(=O)NS(=O)(=O)c4ccc(N[C@H](CCN5CCOCC5)CSc5ccccc5)c(S(=O)(=O)C(F)(F)F)c4)cc3)CC2)C1` [ABT-263, Navitoclax], the SpO2 levels [1] is reported as “statistically significant increases”.

In the case of `CN(C)CC[C@H](CSc1ccccc1)Nc1ccc(S(=O)(=O)NC(=O)c2ccc(N3CCN(Cc4ccccc4-c4ccc(Cl)cc4)CC3)cc2)cc1[N+](=O)[O-]` [ABT-737], the “sensitivity of primary cells from patients with B-cell malignancies” value [2] is listed as “sensitive”, the “dose-limiting toxicity in human patients” value (cancer cells) is listed as “dose-limiting thrombocytopenia” and the “efficacy against cancer cells in human patients” value (cancer cells) is listed as “effective against some types of cancer cells”.

With `CC[C@H](C(=O)N1CCCC[C@H]1C(=O)O[C@H](CCc1ccc(OC)c(OC)c1)c1cccc(OCC(=O)NCC(CNC(=O)COc2cccc([C@@H](CCc3ccc(OC)c(OC)c3)OC(=O)[C@@H]3CCCCN3C(=O)[C@@H](CC)c3cc(OC)c(OC)c(OC)c3)c2)CN(C)C)c1)c1cc(OC)c(OC)c(OC)c1` [AP2018] the SpO2 levels [1] was “statistically significant increases”.

In the case of `COc1ccc(C2=N[C@@H](c3ccc(Cl)cc3)[C@@H](c3ccc(Cl)cc3)N2C(=O)N2CCNC(=O)C2)c(OC(C)C)c1` [Nutlin-3A], the body fat composition ([3]; mice fed the high fat diet) is reported as “decreased”, the mass ([3]; mice fed the high fat diet) is reported as “decreased” and the “lymphocyte counts versus vehicle treated mice” value [3] is reported as “equivalent”. The “platelet counts versus vehicle treated mice” value [3] was “equivalent”, the “expression of SASP factors and senescent cell markers MMP3, MMP13, PAI1, p21, IGFBP2, IL-1A, IL-1B in aortic arch” value ([4]; timepoint 1 (week 4), one treatment cycle) was “reduced expression of several SASP factors and senescent cell markers” and the “expression of SASP factors and senescent cell markers in aortic arch” value ([4]; timepoint 2 (week 8), multiple treatment cycles) was “reduced expression of most markers”. For the same molecule, the “weight placed on operated limb versus contralateral unoperated limb (favoring of unoperated hind limb)” value [5] was “abrogated this effect”, the “reduction of surface area covered by plaques in the descending aorta” value [6] was “about 45%” and the “destruction of the proteoglycan layer (histopathology)” value [7] was “completely abrogated this effect”. The SpO2 levels [1] was “statistically significant increases”, the “expression of IL-6 in the tissue” value ([8]; q.o.d. for 2 weeks, mRNA) was “reduced the expression back to below the level of the controls” and the “expression of MMP13 in the tissue” value ([8]; q.o.d. for 2 weeks, mRNA) was “reduced the expression back to below the level of the controls”. The “expression of p16 in the tissue” value ([8]; q.o.d. for 2 weeks, mRNA) was “reduced the expression back to below the level of the controls” and the “senescent cells in the joint” value [8] was “cleared senescent cells from the joint”.

With `Nc1nc(O)c2ncn(COC(CO)CO)c2n1` [ganciclovir] the SpO2 levels [1] was “statistically significant increases”.
